Data: patent publication US20240065988A1, “COMBINED USE OF KETAMINE AND RETIGABINE (EZOGABINE) FOR THE TREATMENT OF PSYCHIATRIC DISORDERS” (Yeda Research and Development Co. Ltd., priority 2021, published 2024)

Test system: single cells from the ventral hippocampus (vHipp)
Experiment: Single-cell RNA sequencing (scRNA-seq) of the ventral hippocampus after ketamine treatment; differential expression per cell type
[1] = Microglia, ketamine 10 mg/kg i.p. vs saline
[2] = OPCs, ketamine 10 mg/kg i.p. vs saline
[3] = Oligodendrocytes, ketamine 10 mg/kg i.p.
[4] = Oligodendrocytes, ketamine 10 mg/kg i.p. vs saline
[5] = Vascular Cells, ketamine 10 mg/kg i.p. vs saline

## CNC1(c2ccccc2Cl)CCCCC1=O (racemic) [ketamine, (R,S)-ketamine]
Lsm8, Glut Neurons
  Mean-Ket: 1.062
  logFC: −0.125
Map1lc3b, Glut Neurons
  Change: Down
  Mean-Ket: 1.349
  logFC: −0.132
Map4, Glut Neurons
  Change: Down
  Mean-Ket: 2.794
  logFC: −0.101
Matr3, Glut Neurons
  Change: Down
  Mean-Ket: 1.685
  logFC: −0.160
Microglia, ketamine 10 mg/kg i.p.
  Eef1akmt3 Mean-Ket: 1.718
[1]
  Eef1akmt3 Change: Up
  Eef1akmt3 logFC: 0.394
Mmachc, Glut Neurons
  Change: Down
  Mean-Ket: 2.750
  logFC: −0.102
Mrpl48, Glut Neurons
  Change: Up
  Mean-Ket: 1.060
  logFC: 0.180
Mtg2, Glut Neurons
  Change: Down
  Mean-Ket: 2.635
  logFC: −0.091
Ndufc1, Glut Neurons
  Change: Down
  Mean-Ket: 1.039
  logFC: −0.150
Nedd4, Glut Neurons
  Change: Down
  Mean-Ket: 1.358
  logFC: −0.161
Nop58, Glut Neurons
  Change: Down
  Mean-Ket: 2.645
  logFC: −0.096
Nvl, Glut Neurons
  Change: Up
  Mean-Ket: 1.070
  logFC: 0.148
OPCs
  genes differentially expressed exclusively in one cell type: 3
OPCs, ketamine 10 mg/kg i.p.
  Akap5 Mean-Ket: 3.963
  Eef1akmt3 Mean-Ket: 1.870
  Ilf2 Mean-Ket: 1.310
  Lrrc17 Mean-Ket: 3.227
  Mfsd4a Mean-Ket: 0.916
  Saa3 Mean-Ket: 1.654
  Tmem181b-ps Mean-Ket: 0.055
  Tmem1311 Mean-Ket: 0.804
  Tmprss11a Mean-Ket: 0.015
[2]
  Akap5 Change: Down
  Akap5 logFC: −0.320
  Eef1akmt3 Change: Up
  Eef1akmt3 logFC: 0.527
  Ilf2 Change: Up
  Ilf2 logFC: 0.398
  Lrrc17 Change: Down
  Lrrc17 logFC: −0.286
  Mfsd4a Change: Up
  Mfsd4a logFC: 0.460
  Saa3 Change: Up
  Saa3 logFC: 0.404
  Tmem181b-ps Change: Down
  Tmem181b-ps logFC: −0.195
  Tmem1311 Change: Up
  Tmem1311 logFC: 0.585
  Tmprss11a Change: Down
  Tmprss11a logFC: −0.121
Oaz1, Glut Neurons
  Change: Down
  Mean-Ket: 1.200
  logFC: −0.205
[3]
  Akap5 Mean-Ket: 3.517
  Eef1akmt3 Mean-Ket: 2.089
  Gsn Mean-Ket: 1.005
  Ilf2 Mean-Ket: 1.493
  Jpt2 Mean-Ket: 1.507
  Lrrc17 Mean-Ket: 2.805
  Map3k20 Mean-Ket: 2.351
  Mfsd4a Mean-Ket: 1.058
  Mmachc Mean-Ket: 3.286
  Pias4 Mean-Ket: 1.649
  Ppp1r7 Mean-Ket: 1.026
  Psmb11 Mean-Ket: 1.161
  Saa3 Mean-Ket: 1.909
  Sec14l1 Mean-Ket: 1.281
  Slc10a7 Mean-Ket: 1.538
  Snhg11 Mean-Ket: 2.917
  Supt7l Mean-Ket: 2.509
  Them4 Mean-Ket: 1.517
  Tulp1 Mean-Ket: 1.893
  Upf3b Mean-Ket: 3.197
  Vps8 Mean-Ket: 1.703
  Xcr1 Mean-Ket: 1.078
  Zfp229 Mean-Ket: 1.093
  Zfp827 Mean-Ket: 1.284
[4]
  Akap5 Change: Down
  Akap5 logFC: −0.393
  Eef1akmt3 Change: Up
  Eef1akmt3 logFC: 0.601
  Gsn Change: Up
  Gsn logFC: 0.254
  Ilf2 Change: Up
  Ilf2 logFC: 0.463
  Jpt2 Change: Up
  Jpt2 logFC: 0.265
  Lrrc17 Change: Down
  Lrrc17 logFC: −0.365
  Map3k20 Change: Up
  Map3k20 logFC: 0.245
  Mfsd4a Change: Up
  Mfsd4a logFC: 0.642
  Mmachc Change: Up
  Mmachc logFC: 0.154
  Pias4 Change: Up
  Pias4 logFC: 0.209
  Ppp1r7 Change: Up
  Ppp1r7 logFC: 0.231
  Psmb11 Change: Up
  Psmb11 logFC: 0.191
  Saa3 Change: Up
  Saa3 logFC: 0.574
  Sec14l1 Change: Up
  Sec14l1 logFC: 0.238
  Slc10a7 Change: Up
  Slc10a7 logFC: 0.192
  Snhg11 Change: Up
  Snhg11 logFC: 0.164
  Supt7l Change: Up
  Supt7l logFC: 0.169
  Them4 Change: Up
  Them4 logFC: 0.233
  Tulp1 Change: Up
  Tulp1 logFC: 0.207
  Upf3b Change: Up
  Upf3b logFC: 0.166
  Vps8 Change: Down
  Vps8 logFC: −0.217
  Xcr1 Change: Up
  Xcr1 logFC: 0.197
  Zfp229 Change: Up
  Zfp229 logFC: 0.199
  Zfp827 Change: Up
  Zfp827 logFC: 0.208
P3h3, Glut Neurons
  Change: Down
  Mean-Ket: 2.278
  logFC: −0.111
Pan3, Astrocytes
  Change: Down
  Mean-Ket: 1.194
  logFC: −0.179
Pbld1, Glut Neurons
  Change: Down
  Mean-Ket: 3.387
  logFC: −0.106
Poldip2, Astrocytes
  Change: Down
  Mean-Ket: 1.255
  logFC: −0.142
Polr2c, Glut Neurons
  Change: Down
  Mean-Ket: 2.412
  logFC: −0.101
Ppan, Glut Neurons
  Change: Down
  Mean-Ket: 2.680
  logFC: −0.102
Ppp1r16b, Astrocytes
  Change: Down
  Mean-Ket: 2.539
  logFC: −0.227
Rhpn2, Glut Neurons
  Change: Down
  Mean-Ket: 1.601
  logFC: −0.114
Rpl6, Glut Neurons
  Change: Down
  Mean-Ket: 0.808
  logFC: −0.190
Rpl41, Glut Neurons
  Change: Down
  Mean-Ket: 2.239
  logFC: −0.192
Rps29, Glut Neurons
  Change: Down
  Mean-Ket: 0.978
  logFC: −0.136
Rtn1, Glut Neurons
  Change: Down
  Mean-Ket: 1.210
  logFC: −0.185
Saa3, Astrocytes
  Change: Up
  Mean-Ket: 1.697
  logFC: 0.254
Saa3, Glut Neurons
  Change: Up
  Mean-Ket: 1.494
  logFC: 0.193
Sec23b, Glut Neurons
  Change: Down
  Mean-Ket: 2.447
  logFC: −0.109
Sec23ip, Glut Neurons
  Change: Down
  Mean-Ket: 2.674
  logFC: −0.107
Slc23a1, Glut Neurons
  Change: Down
  Mean-Ket: 2.215
  logFC: −0.114
Slc25a4, Glut Neurons
  Change: Down
  Mean-Ket: 0.872
  logFC: −0.125
Snca, Glut Neurons
  Change: Down
  Mean-Ket: 0.835
  logFC: −0.147
Swt1, Glut Neurons
  Change: Down
  Mean-Ket: 2.617
  logFC: −0.085
Synb, Glut Neurons
  Change: Down
  Mean-Ket: 1.730
  logFC: −0.118
Syne1, Astrocytes
  Change: Up
  Mean-Ket: 1.068
  logFC: 0.128
Timeless, Glut Neurons
  Change: Down
  Mean-Ket: 2.582
  logFC: −0.106
Tmsb4x, Glut Neurons
  Change: Down
  Mean-Ket: 1.829
  logFC: −0.167
Tpd52, Astrocytes
  Change: Down
  Mean-Ket: 1.199
  logFC: −0.145
Trpc4ap, Glut Neurons
  Change: Down
  Mean-Ket: 1.729
  logFC: −0.115
Tuba1a, Astrocytes
  Change: Down
  Mean-Ket: 1.483
  logFC: −0.162
Ube2k, Glut Neurons
  Change: Down
  Mean-Ket: 2.844
  logFC: −0.099
Unc13d, Astrocytes
  Change: Down
  Mean-Ket: 1.469
  logFC: −0.146
Usp34, Glut Neurons
  Change: Down
  Mean-Ket: 2.142
  logFC: −0.099
Vascular Cells, ketamine 10 mg/kg i.p.
  Flna Mean-Ket: 2.309
[5]
  Flna Change: Up
  Flna logFC: 2.044
Washc4, Glut Neurons
  Change: Down
  Mean-Ket: 2.856
  logFC: −0.092
Wdr12, Glut Neurons
  Change: Down
  Mean-Ket: 2.770
  logFC: −0.102
Yae1d1, Glut Neurons
  Change: Down
  Mean-Ket: 1.738
  logFC: −0.143
Ythdc1, Astrocytes
  Change: Down
  Mean-Ket: 1.822
  logFC: −0.144
Zcchc4, Glut Neurons
  Change: Down
  Mean-Ket: 0.973
  logFC: −0.113
Zfp113, Glut Neurons
  Change: Down
  Mean-Ket: 2.767
  logFC: −0.090
Zfp369, Glut Neurons
  Change: Up
  Mean-Ket: 1.005
  logFC: 0.207
astrocytes
  genes differentially expressed exclusively in one cell type: 27
Endothelial cells
  genes differentially expressed exclusively in one cell type: 1
Glutamatergic neurons
  genes differentially expressed exclusively in one cell type: 135
Glutamatergic neurons, all DEGs
  DEGs in glutamatergic neurons: 165
In 7 of the 13 clusters, ketamine 10 mg/kg vs saline
  total differentially expressed genes (DEGs): 263
Ketamine 10 mg/kg BW i.p., 2 days post-injection
  relative cell type composition for each cluster, ketamine vs saline: no significant differences
mt-Atp6, Astrocytes
  Change: Up
  Mean-Ket: 2.236
  logFC: 0.106
mt-Cytb, Astrocytes
  Change: Up
  Mean-Ket: 2.746
  logFC: 0.093
mt-Nd2, Astrocytes
  Change: Up
  Mean-Ket: 1.340
  logFC: 0.132
mt-Nd4, Astrocytes
  Change: Up
  Mean-Ket: 2.165
  logFC: 0.125
oligodendrocytes
  genes differentially expressed exclusively in one cell type: 16
Vascular cells
  genes differentially expressed exclusively in one cell type: 1
